Data on 26 compounds can be found in patent US11440909B2, “10H-phenothiazine ferroptosis inhibitor as well as the preparative method and the use thereof” (CHENGDU HENGHAO INVESTMENT CO. LIMITED, priority 2018, dated 2022).

pEC50: −log10 of the molar value. Like-named read-outs stand apart in the source and are kept apart here.

The subject of test [1] is fibrosarcoma cell line HT1080. The test can be described thus: Ferroptosis screening model (MTT method), Erastin-induced ferroptosis. The class given is cell-based, human. A digest of the protocol:
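HT1080 cells adhered 24 h, then received compound plus Erastin ([…] final) for 72 h at 37 °C, 5% CO2, in triplicate. Viability by MTT with SDS solubilisation, absorbance at 570 nm; inhibition of ferroptosis fitted to give EC50.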

Test [2] deals with rat middle cerebral artery occlusion (MCAO) stroke model. The test can be described thus: Rat middle cerebral artery occlusion (MCAO) stroke model, different doses. It is filed as in vivo. As to conditions: for Infarct weight: tail vein injection, 24 h of reperfusion, TTC stain; for Inhibition rate of cerebral infarction: versus model group infarct range. On the procedure: By rat middle cerebral artery occlusion (MCAO) stroke model (also called cerebral ischemia model), the therapeutic effect of the compound of the present invention on ischemic stroke in SD rats at different doses was studied. Male SD rats were selected and induced anesthesia by 2-3.0% isoflurane. The middle cerebral artery was blocked by the thread plug method, resulting in rat ischemia model; the ischemic rats were placed at room temperature and kept their body temperature being 37° C. 60 minutes after ischemia onset, the rats were scored by Bederson neurobehavioral scale to determine whether the model was successfully made. 90 min after ischemia onset, the thread plug was pulled out for reperfusion. […] After 24 h of reperfusion, the animals were scored by NSS scale to evaluate neurological deficit. And then the animals were dissected, brains were collected and subjected to TTC stain. […] The percentage of the weight of the infarct tissue based on the weight of the whole brain was regarded as the infarct range (%), and the inhibition rate (%) of each drug treatment group was calculated based on the infarct range.

Setting [3] is: Homo sapiens, HT-1080, 72 h, HT1080, ferroptosis inducer Erastin, 72 h, average of three tests, read-out: EC50.
[4] abbreviates: HT1080, ferroptosis inducer Erastin, 72 h, average of three tests, read-out: EC50.
The mark [5] stands for this setting: positive drug butylphthalide 10 mg/kg.

As to `CC(c1ccc(N2CCN(C)CC2)cc1)c1ccc2c(c1)Nc1ccccc1S2` (centres unmarked) [Compound A38, 2-(1-(4-(4-methylpiperazin-1-yl)phenyl)ethyl)-10H-phenothiazine], the pEC50 in test [1] (setting [3]) is 9.30; in test [1] (Homo sapiens, HT-1080, HT1080, Erastin, read-out: EC50 value), around 9.00. Further, the Infarct weight was 0.126 ± 0.072 g in test [2] (high dose 2.5 mg/kg), 0.170 ± 0.041 g in test [2] (low dose 0.5 mg/kg), 0.152 ± 0.064 g in test [2] (medium dose 1.25 mg/kg) and 0.187 ± 0.078 g in test [2] (very low dose 0.2 mg/kg). Moreover, the “Inhibition rate of cerebral infarction” value worked out at 50.885% in test [2] (high dose 2.5 mg/kg), 31.209% in test [2] (low dose 0.5 mg/kg), 38.968% in test [2] (medium dose 1.25 mg/kg) and 27.307% in test [2] (very low dose 0.2 mg/kg).
Take `CC(c1ccc2c(c1)Nc1ccccc1S2)S(=O)(=O)N1CCN(Cc2ccc(Cl)cc2)CC1` (centres unmarked) [Compound C36, 2-(1-((4-(4-chlorobenzyl)piperazin-1-yl)sulfonyl)ethyl)-10H-phenothiazine]: the negative-log EC50 (pEC50) in test [1] (setting [3]) was 6.89.
For the compound `CC(c1ccc2c(c1)Nc1ccccc1S2)S(=O)(=O)N1CCC(NC(=O)OC(C)(C)C)CC1` (centres unmarked) [Compound C37, t-butyl (1-((1-(10H-phenothiazin-2-yl)ethyl)sulfonyl)piperidin-4-yl)carbamate], in test [1] (setting [3]), the negative logarithm of the EC50 (pEC50) is 6.57.
Take `CC(c1ccc2c(c1)Nc1ccccc1S2)S(=O)(=O)N1CCCC(CO)C1` (centres unmarked) [Compound C38, (1-((1-(10H-phenothiazin-2-yl)ethyl)sulfonyl)piperidin-3-yl)methanol]: in test [1] (setting [3]), the negative-log EC50 (pEC50) was 6.64.
Regarding `CCOC(=O)[C@@H]1CCCN(S(=O)(=O)C(C)c2ccc3c(c2)Nc2ccccc2S3)C1` (stereo partly drawn) [Compound C39, ethyl (3R)-1-((1-(10H-phenothiazin-2-yl)ethyl)sulfonyl)piperidin-3-formate], in test [1] (setting [3]), the pEC50 is 6.61.
Consider `CC(c1ccc2c(c1)Nc1ccccc1S2)S(=O)(=O)N1CCCC(O)C1` (centres unmarked) [Compound C40, 1-((1-(10H-phenothiazin-2-yl)ethyl)sulfonyl)piperidin-3-ol], for which, in test [1] (setting [3]), the pEC50 is 6.85.
`CC(c1ccc2c(c1)Nc1ccccc1S2)S(=O)(=O)N1CC[C@H](O)C1` (some centres unmarked) [Compound C41]: in test [1] (setting [3]), the negative-log EC50 (pEC50) is 6.93.
For `CC(c1ccc2c(c1)Nc1ccccc1S2)S(=O)(=O)N1CCC[C@@H]1C` (some centres unmarked) [Compound C42], the pEC50 in test [1] (setting [3]) was 6.47.
Consider `CC(c1ccc2c(c1)Nc1ccccc1S2)S(=O)(=O)N1CCC(N2CCCCC2)CC1` (centres unmarked) [Compound C43, 2-(1-([1,4′-dipiperidin]-1′-ylsulfonyl)ethyl)-10H-phenothiazine], for which the pEC50 in test [1] (setting [3]) was 7.31.
On to `CC(c1ccc2c(c1)Nc1ccccc1S2)S(=O)(=O)N1C[C@@H](C)O[C@@H](C)C1` (stereo partly drawn) [Compound C44, (2S,6R)-4-((1-(10H-phenothiazin-2-yl)ethyl)sulfonyl)-2,6-dimethylmorpholine], for which the negative-log EC50 (pEC50) in test [1] (setting [3]) is 6.37.
Consider `CC1CCN(S(=O)(=O)C(C)c2ccc3c(c2)Nc2ccccc2S3)CC1` (centres unmarked) [Compound C45, 2-(1-((4-methylpiperidin-1-yl)sulfonyl)ethyl)-10H-phenothiazine], for which the pEC50 in test [1] (setting [3]) was 6.65.
Regarding `CC1CCCN(S(=O)(=O)C(C)c2ccc3c(c2)Nc2ccccc2S3)C1` (centres unmarked) [Compound C46, 2-(1-((3-methylpiperidin-1-yl)sulfonyl)ethyl)-10H-phenothiazine], the pEC50 in test [1] (setting [3]) is 6.81.
On to `CC(c1ccc2c(c1)Nc1ccccc1S2)S(=O)(=O)N1CCC(C(N)=O)CC1` (centres unmarked) [Compound C47, 1-((1-(10H-phenothiazin-2-yl)ethyl)sulfonyl)piperidin-4-formamide], for which, in test [1] (setting [3]), the pEC50 was 6.65.
As to `CC1CN(S(=O)(=O)C(C)c2ccc3c(c2)Nc2ccccc2S3)CC(C)N1` (centres unmarked) [Compound C48, 2-(1-((3,5-dimethylpiperazin-1-yl)sulfonyl)ethyl)-10H-phenothiazine], the negative logarithm of the EC50 (pEC50) in test [1] (setting [3]) is 7.46.
Regarding `COc1ccccc1N1CCN(S(=O)(=O)C(C)c2ccc3c(c2)Nc2ccccc2S3)CC1` (centres unmarked) [Compound C49, 2-(1-((4-(2-methoxylphenyl)piperazin-1-yl)sulfonyl)ethyl)-10H-phenothiazine], the negative-log EC50 (pEC50) in test [1] (setting [4]) was 6.64.
Still for that read-out and setting: the result for `C=C(c1cnc(N2CCOCC2)nc1)c1ccc2c(c1)Nc1ccccc1S2` [Compound C51, 4-(5-(1-(10H-phenothiazin-2-yl)ethenyl)pyrimidin-2-yl)morpholine] reads 6.84.
As to `CC(c1ccc2c(c1)Nc1ccccc1S2)S(=O)(=O)N1CCN(c2ncccn2)CC1` (centres unmarked) [Compound C52, 2-(1-((4-(pyrimidin-2-yl)piperazin-1-yl)sulfonyl)ethyl)-10H-phenothiazine], the pEC50 in test [1] (setting [3]) was 7.16.
Take `CC(c1ccc2c(c1)Nc1ccccc1S2)S(=O)(=O)N1CCN(c2ccc(C#N)cc2)CC1` (centres unmarked) [Compound C53, 4-(4-((1-(10H-phenothiazin-2-yl)ethyl)sulfonyl)piperazin-1-yl)benzonitrile]: the pEC50 in test [1] (setting [3]) is 6.74.
Same read-out and setting: next, `COc1cccc(N2CCN(S(=O)(=O)C(C)c3ccc4c(c3)Nc3ccccc3S4)CC2)c1` (centres unmarked) [Compound C54, 2-(1-((4-(3-methoxylphenyl)piperazin-1-yl)sulfonyl)ethyl)-10H-phenothiazine]: 6.78; `CC(c1ccc2c(c1)Nc1ccccc1S2)S(=O)(=O)N1CCN(c2ccc([N+](=O)[O-])cc2)CC1` (centres unmarked) [Compound C55, 2-(1-((4-(4-nitrophenyl)piperazin-1-yl)sulfonyl)ethyl)-10H-phenothiazine]: 7.15.
In the case of `CC(c1ccc2c(c1)Nc1ccccc1S2)S(=O)(=O)N1CCN(c2ccc(C(F)(F)F)cc2)CC1` (centres unmarked) [Compound C56, 2-(1-((4-(4-(trifluoromethyl)phenyl)piperazin-1-yl)sulfonyl)ethyl)-10H-phenothiazine], the negative logarithm of the EC50 (pEC50) in test [1] (setting [3]) is 6.67.
Regarding `CC(c1ccc2c(c1)Nc1ccccc1S2)S(=O)(=O)N1CCN(c2cnccn2)CC1` (centres unmarked) [Compound C57, 2-(1-((4-(pyrazin-2-yl)piperazin-1-yl)sulfonyl)ethyl)-10H-phenothiazine], the negative logarithm of the EC50 (pEC50) in test [1] (setting [3]) was 6.89.
Regarding `CCCCN1CCN(S(=O)(=O)C(C)c2ccc3c(c2)Nc2ccccc2S3)CC1` (centres unmarked) [Compound C58, 2-(1-((4-butylpiperazin-1-yl)sulfonyl)ethyl)-10H-phenothiazine], the pEC50 in test [1] (setting [3]) was 6.75.
For the compound `Cc1ccc(N2CCN(S(=O)(=O)C(C)c3ccc4c(c3)Nc3ccccc3S4)CC2)cc1` (centres unmarked) [Compound C59, 2-(1-((4-(p-methylphenyl)piperazin-1-yl)sulfonyl)ethyl)-10H-phenothiazine], the negative logarithm of the EC50 (pEC50) in test [1] (setting [3]) was 6.85.
As for `CCOC(=O)c1ccc(NC2CCCCC2)c(N)c1` [Fer-1, Ferrostatin-1, reference compound], in test [1] (setting [4]), the pEC50 was 7.22.
Turning to `CCCCC1OC(=O)c2ccccc21` (centres unmarked) [Positive drug, butylphthalide, reference compound], the NSS score in test [2] (positive drug butylphthalide 10 mg/kg, after 24 h of reperfusion) is 8.500 ± 1.401. For the same compound, in test [2] (setting [5]), the Infarct weight is on record as 0.193 ± 0.075 g and the “Inhibition rate of cerebral infarction” value came to 24.477%. The Infarct range in test [2] (positive drug butylphthalide 10 mg/kg, infarct tissue weight as % of whole brain weight) came to 13.292 ± 4.476 %.
